# Test results reported in patent publication US8835466B2, “Synthesis and uses of pyroglutamic acid derivatives” (Prodimed, S.A., priority 2006, dated 2014).
# Several values for one entry are separate records, joined by “and”; a condition that tells them apart may be missing. Identical values can stand only once. Like-named read-outs stand apart in the source and are kept apart here.
# Experiments:
# [1] = tested on: KLN 205 (lung carcinoma); experiment: Effect of isomer 4 (9d) on tumour growth, KLN 205 (Example 10); format: in vivo; details: KLN 205 (high dose lung carcinoma); DBA/2NCrI mice; 260 ng/mice i.p. days 6, 7 and 14
# Experimental: (§1) The following assays were made in order to check the effect of isomer 4 (9d) on different tumours following methods and materials analogous to those used in examples 8 and 9, In all cases sterile physiologic saline (Grifols, Barcelona, Spain) was used as placebo. Isomer 4 (9d) was tested at the dose levels indicated in Table 13 on days 6, 7 and 14 after tumour inoculation. In all cases the vehicle was physiologic saline and the treatments were given by intraperitoneal route. The volume inoculated was 0.2 mL/animal.
# [2] = tested on: Lewis lung cells (lung cell carcinoma); experiment: Effect of 9d in combination with Cisplatin on tumour growth, Lewis lung (Example 13); format: in vivo, C57BL/6J mice; details: for SURFACE Overall values (Mean) / SURFACE Overall values (Median) / VOLUME Overall values (Mean) / VOLUME Overall values (Median): Cisplatin 65 μg, or both
# Text: This assay was made in order to check the effect on in vivo tumour growth in mice challenged with Lewis lung cells. Their effect will be compared with the combination of chemotherapeutic agents plus 9d and/or placebo. Lewis Lung is a lung cell carcinoma originated in C57BL/6J mice strain, and therefore syngeneic in mice with C57BL/6J genetic background (Rodrigo Garzón M, Tirapu Fernández de la Cuesta […], Noel […] and […]. Use of Gene Therapy in a Subcutaneous Murine Model of Lung Cancer. Arch Bronconeumology. 42: 526-532; 2006). Lewis lung cells (CLS, Eppelheim, Germany) were maintained in vitro by serial passages every 3-4 days. […] Louis, Mo., USA) by seeding 5×10^6 cells onto 75 cm^2 culture flasks. Subcultures were carried out by collecting detached cells after treatment with trypsin-EDTA (Sigma, St. Louis, Mo., USA). Tumour cells, collected from 48 hour cultures, were used as source of Lewis Lung cells for the studies described below. […] Tumours were established by subcutaneous inoculation in the right hind flank. Mice were inoculated with 0.2 mL containing 2×10^5 viable cells. The day of subcutaneous inoculation will be considered Day 0 of the test. Mice were observed daily and the tumour size recorded twice a week. This was carried out by measuring two perpendicular diameters (d1/d2) with a calliper. These measures were used to obtain both tumour surface and volume: […] Results were expressed as single values and/or as the mean±SD or median from each experimental group. A case-control study was performed with treated and control mice in order to determine whether differences between placebo, 9d, Cisplatin or 9d+Cisplatin were present. The data obtained (tumour surface and volume) were tested for Normal distribution within the groups (Kolmogorov Smirnov test p<0.05). […] The U-test of Mann Withney was chosen for being one of the better known non-parametrical tests, anyway, results for this test are equivalent both to those of Wilcoxon's sum of ranges and Kruskal-Wallis two-groups test. We excluded of the study animals that have undetectable or unscored tumour on 31th day after tumour inoculation. Due to the high dispersion of data, outlayers were excluded of the study.
# [3] = tested on: ASB XIV (lung carcinoma); experiment: Effect of isomer 4 (9d) on tumour growth, ASB XIV (Example 10); format: in vivo; details: Balb/cAnNCrI mice, 260 ng/mice i.p. days 6, 7 and 14
# Experimental: as §1
# [4] = tested on: P-815 (Mastocytoma); experiment: Effect of isomer 4 (9d) on tumour growth, P-815 (Example 10); format: in vivo; details: DBA/2NCrI mice, 250 ng/mice i.p. days 6, 7 and 14
# Experimental: as §1
# [5] = tested on: Mm5MT (Breast tumour); experiment: Effect of isomer 4 (9d) on tumour growth, Mm5MT (Example 10); format: in vivo; details: C3H/HeN mice, 250 ng/mice i.p. days 6, 7 and 14
# Experimental: as §1
# [6] = tested on: healthy mice; format: in vivo; details: for WEIGHT LOSS: weight, MEAN / WEIGHT LOSS: weight, MEDIAN: n 5
# Experimental: This assay was made in order to perform a preliminary study to address the toxic effect of Isomer 4 (9d) used at a high dose on healthy mice. Its eventual toxicity will be compared with placebo.
# Isomer 4 (9d) at 0.7 mg/mL in sterile physiological saline.
# The vehicle in which Isomer 4 was diluted was sterile physiological saline for injection (Grifols, Barcelona, Spain) and sterile distilled water for injection (Grifols, Barcelona, Spain)
# The treatments were given i.p. or s.c.
# Every mouse was observed daily during 10 days.
# Three measures were performed:
# 3. Weight. This was measured and expressed in grammes.
# 4. Lethality. This was expressed as percentage of survival.
# 5. Toxicity. This was checked on alive mice for the following parameters and score criteria:
# A case-control study was performed with treated and control mice in order to determine whether differences between Isomer 4 and administration of placebo were present. The U-test of Mann Withney was chosen for being one of the better known non-parametrical tests, anyway, results for this test are equivalent both to those of Wilcoxon's sum of ranges and Kruskal-Wallis two-groups test.
# [7] = tested on: CT26.wt (colon carcinoma); experiment: Effect of isomer 4 (9d) on tumour growth, CT26.wt (Example 10); format: in vivo; details: CT26.wt (high dose colon carcinoma); Balbc/cByl mice; 250 ng/mice i.p. days 6, 7 and 14
# Experimental: as §1
# [8] = 9d 250 ng, day 0 after tumour inoculation
# [9] = 9d 250 ng, day 10 after tumour inoculation
# [10] = 9d 250 ng, day 13 after tumour inoculation
# [11] = 9d 250 ng, day 17 after tumour inoculation
# [12] = 9d 250 ng, day 20 after tumour inoculation
# [13] = 9d 250 ng, day 24 after tumour inoculation
# [14] = 9d 250 ng, day 27 after tumour inoculation
# [15] = 9d 250 ng, day 31 after tumour inoculation
# [16] = Group A1, 1.25 mg i.p., C57BL/6NCrI, day 0 after the beginning of the treatment
# [17] = Group A1, 1.25 mg i.p., C57BL/6NCrI, day 1 after the beginning of the treatment
# [18] = Group A1, 1.25 mg i.p., C57BL/6NCrI, day 2 after the beginning of the treatment
# [19] = Group A1, 1.25 mg i.p., C57BL/6NCrI, day 3 after the beginning of the treatment
# [20] = Group A1, 1.25 mg i.p., C57BL/6NCrI, day 4 after the beginning of the treatment
# [21] = Group A1, 1.25 mg i.p., C57BL/6NCrI, day 5 after the beginning of the treatment
# [22] = Group A1, 1.25 mg i.p., C57BL/6NCrI, day 6 after the beginning of the treatment
# [23] = Group A1, 1.25 mg i.p., C57BL/6NCrI, day 7 after the beginning of the treatment
# [24] = Group A1, 1.25 mg i.p., C57BL/6NCrI, day 8 after the beginning of the treatment
# [25] = Group A1, 1.25 mg i.p., C57BL/6NCrI, day 9 after the beginning of the treatment
# [26] = Group A1, 1.25 mg i.p., C57BL/6NCrI, day 10 after the beginning of the treatment
smiles,measurement,setting,value
"Br.N[C@]1(C[n+]2ccccc2)C[C@H](C(=O)O)NC1=O.[Br-] (single isomer, unassigned; isomer 4) [isomer 4, 3S,5R-1-(3-Amino-5-carboxy-2-oxopyrrolidin-3-ylmethyl)pyridinium bromide hidrobromide]",Tumour growth inhibition?,[1],YES
same,"Inhibition of the in vivo growth of Lewis lung tumour in inbred mice, in words","[2]; 9d 250 ng, Cisplatin 65 μg i.p.",inhibit the in vivo growth
same,SURFACE Overall values (Mean),[2]; [8],0 mm^2
same,SURFACE Overall values (Median),[2]; [8],0 mm^2
same,VOLUME Overall values (Mean),[2]; [8],0 mm^3
same,VOLUME Overall values (Median),[2]; [8],0 mm^3
same,SURFACE Overall values (Mean),[2]; [9],2 mm^2
same,SURFACE Overall values (Median),[2]; [9],0 mm^2
same,VOLUME Overall values (Mean),[2]; [9],2.27 mm^3
same,VOLUME Overall values (Median),[2]; [9],0 mm^3
same,SURFACE Overall values (Mean),[2]; [10],6.47 mm^2
same,SURFACE Overall values (Median),[2]; [10],4 mm^2
same,VOLUME Overall values (Mean),[2]; [10],12.5 mm^3
same,VOLUME Overall values (Median),[2]; [10],4 mm^3
same,SURFACE Overall values (Mean),[2]; [11],20.13 mm^2
same,SURFACE Overall values (Median),[2]; [11],24 mm^2
same,VOLUME Overall values (Mean),[2]; [11],52.73 mm^3
same,VOLUME Overall values (Median),[2]; [11],48 mm^3
same,SURFACE Overall values (Mean),[2]; [12],34.33 mm^2
same,SURFACE Overall values (Median),[2]; [12],36 mm^2
same,VOLUME Overall values (Mean),[2]; [12],112.3 mm^3
same,VOLUME Overall values (Median),[2]; [12],108 mm^3
same,SURFACE Overall values (Mean),[2]; [13],60.6 mm^2
same,SURFACE Overall values (Median),[2]; [13],80 mm^2
same,VOLUME Overall values (Mean),[2]; [13],253.77 mm^3
same,VOLUME Overall values (Median),[2]; [13],320 mm^3
same,SURFACE Overall values (Mean),[2]; [14],104.8 mm^2
same,SURFACE Overall values (Median),[2]; [14],88 mm^2
same,VOLUME Overall values (Mean),[2]; [14],557.13 mm^3
same,VOLUME Overall values (Median),[2]; [14],364.5 mm^3
same,SURFACE Overall values (Mean),[2]; [15],141.8 mm^2
same,SURFACE Overall values (Median),[2]; [15],130 mm^2
same,VOLUME Overall values (Mean),[2]; [15],887.17 mm^3
same,VOLUME Overall values (Median),[2]; [15],665.5 mm^3
same,"Differences in Lewis Lung tumour growth rate vs. placebo, statistical significance p (Mann-Whitney U test)","[2]; either in surface or volume, all days scored after the day 13th",< 0.05
same,Tumour growth inhibition?,[3]; ASB XIV (high dose lung carcinoma),YES
same,Tumour growth inhibition?,[3]; ASB XIV (low dose lung carcinoma),YES
same,Tumour growth inhibition?,[4],YES
same,Tumour growth inhibition?,[5],YES
same,"Differences on weight between groups (Isomer 4 vs placebo), p (Mann-Whitney U test)","[6]; C57BL/6 mice, every day scored over 10 days",> 0.05
same,WEIGHT LOSS: weight of each mouse,"[6]; Group A1, 1.25 mg i.p., C57BL/6NCrI, individual animals 1-5, day 8 after the beginning of the treatment",26 g (3×) and 20 g and 28 g
same,"WEIGHT LOSS: weight, MEAN",[6]; [16],26.4 g
same,"WEIGHT LOSS: weight, MEDIAN",[6]; [16],27 g
same,"WEIGHT LOSS: weight, MEAN",[6]; [17],25.4 g
same,"WEIGHT LOSS: weight, MEDIAN",[6]; [17],26 g
same,"WEIGHT LOSS: weight, MEAN",[6]; [18],25.4 g
same,"WEIGHT LOSS: weight, MEDIAN",[6]; [18],26 g
same,"WEIGHT LOSS: weight, MEAN",[6]; [19],26 g
same,"WEIGHT LOSS: weight, MEDIAN",[6]; [19],26 g
same,"WEIGHT LOSS: weight, MEAN",[6]; [20],25.8 g
same,"WEIGHT LOSS: weight, MEDIAN",[6]; [20],26 g
same,"WEIGHT LOSS: weight, MEAN",[6]; [21],24.8 g
same,"WEIGHT LOSS: weight, MEDIAN",[6]; [21],26 g
same,"WEIGHT LOSS: weight, MEAN",[6]; [22],25 g
same,"WEIGHT LOSS: weight, MEDIAN",[6]; [22],26 g
same,"WEIGHT LOSS: weight, MEAN",[6]; [23],25 g
same,"WEIGHT LOSS: weight, MEDIAN",[6]; [23],26 g
same,"WEIGHT LOSS: weight, MEAN",[6]; [24],25.2 g
same,"WEIGHT LOSS: weight, MEDIAN",[6]; [24],26 g
same,"WEIGHT LOSS: weight, MEAN",[6]; [25],25 g
same,"WEIGHT LOSS: weight, MEDIAN",[6]; [25],26 g
same,"WEIGHT LOSS: weight, MEAN",[6]; [26],24.8 g
same,"WEIGHT LOSS: weight, MEDIAN",[6]; [26],26 g
same,"Deaths or toxicity (systemic), in words","[6]; Group A1, dose exceeded 50,000-fold the total amount of the therapeutic dose",No deaths or toxicity were observed
same,"Local toxicity, in words","[6]; Group C1, dose exceeded 500-fold the normal concentration of the therapeutic dose",Local toxicity was neither observed
same,"Tolerance by mice, in words",[6]; doses that greatly exceed its therapeutic range,well tolerated
same,Tumour growth inhibition?,[7],YES
